According to ChEMBL document CHEMBL1143219, “Proline bis-amides as potent dual orexin receptor antagonists” (Bioorg Med Chem Lett, 2008):
pKi: −log10 of the molar value.

Columns and labels:
[1] = biological target: T1, Orexin/Hypocretin receptor type 1 (Homo sapiens, UniProt O43613); test: Displacement of [3H](S)-1-[2-(1-methyl-1H-benzoimidazol-2-ylsulfanyl)-acetyl]-pyrrolidine-2-carboxylic acid biphenyl-2-ylamide from human OX1R expressed in CHO cells; assay type: cell-based
T1 sequence (O43613 whole entry): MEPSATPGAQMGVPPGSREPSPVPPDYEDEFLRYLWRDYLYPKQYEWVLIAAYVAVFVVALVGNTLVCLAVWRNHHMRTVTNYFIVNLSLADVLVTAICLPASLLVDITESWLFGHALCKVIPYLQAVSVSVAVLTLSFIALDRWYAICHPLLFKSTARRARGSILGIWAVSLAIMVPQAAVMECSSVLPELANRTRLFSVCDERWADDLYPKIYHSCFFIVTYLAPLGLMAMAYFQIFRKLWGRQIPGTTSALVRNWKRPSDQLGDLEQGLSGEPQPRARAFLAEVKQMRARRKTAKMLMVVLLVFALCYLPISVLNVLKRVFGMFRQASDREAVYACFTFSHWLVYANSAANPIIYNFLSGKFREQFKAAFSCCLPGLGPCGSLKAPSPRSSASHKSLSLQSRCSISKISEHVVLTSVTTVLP

[2] = biological target: T2, Orexin receptor type 2 (Homo sapiens) (UniProt O43614); test: Antagonist activity at human OX2R expressed in CHOK1 cells assessed as effect on calcium mobilization; assay type: functional, cell-based; details: CHO-K1
T2 sequence (whole entry): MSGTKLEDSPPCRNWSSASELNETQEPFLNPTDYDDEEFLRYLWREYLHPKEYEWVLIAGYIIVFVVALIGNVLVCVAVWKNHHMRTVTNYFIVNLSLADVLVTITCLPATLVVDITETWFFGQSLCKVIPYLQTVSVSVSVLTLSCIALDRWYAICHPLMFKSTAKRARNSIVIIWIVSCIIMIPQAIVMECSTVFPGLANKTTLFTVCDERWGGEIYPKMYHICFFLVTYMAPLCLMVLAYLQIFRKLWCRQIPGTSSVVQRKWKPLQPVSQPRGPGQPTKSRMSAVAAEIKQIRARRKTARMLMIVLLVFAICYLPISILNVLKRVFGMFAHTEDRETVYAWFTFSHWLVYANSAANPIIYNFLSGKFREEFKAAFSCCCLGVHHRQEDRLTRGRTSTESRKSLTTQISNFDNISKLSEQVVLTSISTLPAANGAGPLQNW

Orexin receptor type 2 = biological target: T3, Orexin receptor type 2 (Homo sapiens, UniProt O43614); test: Displacement of [3H](S)-N-(2-(1H-pyrrol-1-yl)phenyl)-1-(2-(1-methyl-1H-benzo[d]imidazol-2-ylthio)acetyl)pyrrolidine-2-carboxamide from human OX2R expressed in CHO cells; assay type: cell-based
T3 sequence (O43614 whole entry): T2 sequence (whole entry)

[3] = biological target: T4, Orexin/Hypocretin receptor type 1 (Rattus norvegicus) (UniProt P56718); test: Antagonist activity at rat OX1R assessed as effect on calcium mobilization; assay type: functional
T4 sequence (whole entry): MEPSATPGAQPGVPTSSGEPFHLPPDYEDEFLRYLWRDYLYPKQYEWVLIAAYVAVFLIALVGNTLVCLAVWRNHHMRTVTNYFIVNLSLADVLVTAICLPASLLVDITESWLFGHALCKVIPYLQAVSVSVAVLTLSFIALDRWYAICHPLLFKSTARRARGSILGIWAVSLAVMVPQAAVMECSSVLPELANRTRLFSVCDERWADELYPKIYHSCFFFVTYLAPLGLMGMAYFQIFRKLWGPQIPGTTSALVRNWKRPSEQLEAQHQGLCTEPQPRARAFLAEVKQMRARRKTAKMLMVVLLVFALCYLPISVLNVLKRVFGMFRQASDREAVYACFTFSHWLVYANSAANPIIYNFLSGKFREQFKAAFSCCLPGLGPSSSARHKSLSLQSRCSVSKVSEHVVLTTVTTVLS

[4] = biological target: T5, Thyrotropin-releasing hormone receptor (Homo sapiens) (UniProt P34981); test: Inhibition of TRH receptor
T5 sequence (whole entry): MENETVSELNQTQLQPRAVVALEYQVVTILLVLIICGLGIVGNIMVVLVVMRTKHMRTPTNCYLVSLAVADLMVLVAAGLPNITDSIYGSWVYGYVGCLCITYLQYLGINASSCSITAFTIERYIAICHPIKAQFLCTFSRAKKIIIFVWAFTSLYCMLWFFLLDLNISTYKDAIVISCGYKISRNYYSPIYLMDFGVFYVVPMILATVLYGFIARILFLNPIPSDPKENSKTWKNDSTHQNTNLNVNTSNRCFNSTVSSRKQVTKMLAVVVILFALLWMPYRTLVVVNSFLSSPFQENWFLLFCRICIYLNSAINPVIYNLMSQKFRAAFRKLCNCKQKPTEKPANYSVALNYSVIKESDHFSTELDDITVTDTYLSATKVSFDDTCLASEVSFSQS

[5] = Inhibition of sodium channel at site 2
[6] = Half life in rat; assay type: ADME, organism-based; details: in vivo
[7] = Oral bioavailability in rat; assay type: ADME, organism-based; details: in vivo
[8] = Drug level in rat plasma at 100 mg/kg, ip after 30 mins; assay type: ADME, organism-based; parameters: dose 100 mg/kg, route intraperitoneal
[9] = Inhibition of prostanoid receptor
Rattus norvegicus = test: Inhibition of ADL-orexin-B-induced increase in locomotion activity in ip dosed rat; assay type: functional, organism-based
[10] = Partition coefficient, log P of the compound; assay type: physicochemical; details: octanol/water
[11] = Clearance in rat; assay type: ADME, organism-based; details: in vivo
[12] = Drug level in rat cerebrospinal fluid at 100 mg/kg, ip after 30 mins; assay type: ADME, organism-based; parameters: dose 100 mg/kg, route intraperitoneal; details: read-out: Drug uptake
[13] = biological target: T6, Thromboxane A2 receptor (Homo sapiens) (UniProt P21731); test: Inhibition of thromboxane A2 receptor
T6 sequence (whole entry): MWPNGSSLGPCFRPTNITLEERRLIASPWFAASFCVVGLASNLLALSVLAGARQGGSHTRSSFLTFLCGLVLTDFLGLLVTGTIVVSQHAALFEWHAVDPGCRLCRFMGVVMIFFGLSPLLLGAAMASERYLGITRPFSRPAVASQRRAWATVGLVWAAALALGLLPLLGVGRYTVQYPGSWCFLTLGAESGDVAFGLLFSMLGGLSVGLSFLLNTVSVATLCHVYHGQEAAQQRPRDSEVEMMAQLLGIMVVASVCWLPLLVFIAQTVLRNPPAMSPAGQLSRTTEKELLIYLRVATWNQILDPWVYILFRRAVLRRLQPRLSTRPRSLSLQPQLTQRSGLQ

[14] = biological target: Synaptic vesicular amine transporter (Homo sapiens) (UniProt Q05940); test: Inhibition of monoamine transporter
Chain of Synaptic vesicular amine transporter (Homo sapiens) (Q05940 whole entry): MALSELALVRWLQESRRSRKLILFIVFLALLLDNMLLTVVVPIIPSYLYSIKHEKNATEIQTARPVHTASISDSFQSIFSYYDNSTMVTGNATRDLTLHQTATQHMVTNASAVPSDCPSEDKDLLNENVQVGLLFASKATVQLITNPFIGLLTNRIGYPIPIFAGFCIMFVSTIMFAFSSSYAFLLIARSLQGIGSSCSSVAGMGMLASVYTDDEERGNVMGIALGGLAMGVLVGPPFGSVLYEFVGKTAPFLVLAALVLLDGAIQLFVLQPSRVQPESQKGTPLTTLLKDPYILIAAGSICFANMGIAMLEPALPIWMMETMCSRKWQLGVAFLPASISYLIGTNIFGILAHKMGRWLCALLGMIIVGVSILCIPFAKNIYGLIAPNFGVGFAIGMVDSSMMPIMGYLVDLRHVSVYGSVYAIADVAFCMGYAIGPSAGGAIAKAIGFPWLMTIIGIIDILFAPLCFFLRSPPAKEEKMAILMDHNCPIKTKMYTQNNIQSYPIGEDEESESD

[15] = Drug level in rat brain at 100 mg/kg, ip after 30 mins; assay type: ADME, organism-based; parameters: dose 100 mg/kg, route intraperitoneal; details: read-out: Drug uptake

| Structure (SMILES) | pKi [1] | Activity [2] | pKi (Orexin receptor type 2) | also measured |
| --- | --- | --- | --- | --- |
| O=C(Nc1ccccc1-c1ccccc1)[C@@H]1CCCN1C(=O)CCc1nc2ccccc2[nH]1 | 7.40 | 20 nM | 8.22 | – |
| O=C(Nc1ccc(-c2ccccc2)cc1)[C@@H]1CCCN1C(=O)CSc1nc2ccccc2[nH]1 | 5.64 | 143 nM | 7.96 | – |
| O=C(Nc1ccccc1-n1cccc1)[C@@H]1CCCN1C(=O)CSc1nc2ccccc2[nH]1 | 7.55 | 6 nM | 9.00 | – |
| O=C(Nc1ccccc1-n1cccc1)[C@@H]1CCCN1C(=O)CSc1nc2ccccc2s1 | 7.41 | 11 nM | 8.70 | – |
| COc1ccccc1-c1ccccc1NC(=O)[C@@H]1CCCN1C(=O)CCc1nc2ccccc2[nH]1 | 7.07 | 5 nM | 8.70 | – |
| O=C(Nc1cccc(-c2ccccc2)c1)[C@@H]1CCCN1C(=O)CSc1nc2ccccc2[nH]1 | 6.30 | 2640 nM | 6.55 | – |
| O=C(Nc1ccccc1-n1cccc1)[C@@H]1CCCN1C(=O)CSc1nc2ccccc2o1 | 6.92 | 28 nM | 8.10 | – |
| O=C(Nc1ccccc1-n1cccc1)[C@@H]1CCCN1C(=O)CCc1nc2ccccc2[nH]1 | 6.89 | 36 nM | 7.96 | Activity [3]: 520 nM |
| Cc1ccc2c(c1)nc(SCC(=O)N1CCC[C@H]1C(=O)Nc1ccccc1-n1cccc1)n2C | 9.15 | 8 nM | 10.05 | – |
| Cn1c(CCC(=O)N2CCC[C@H]2C(=O)Nc2ccccc2-n2cccc2)nc2ccccc21 | 7.31 | 3 nM | 8.70 | – |
| O=C(Nc1ccccc1-c1ccccc1)[C@@H]1CCCN1C(=O)CSc1nc2ccccc2[nH]1 | 8.00 | 7 nM | 9.22 | – |
| Cc1ccc2nc(SCC(=O)N3CCC[C@H]3C(=O)Nc3ccccc3-n3cccc3)[nH]c2c1 | 8.52 | – | 9.70 | – |
| Cn1c(SCC(=O)N2CCC[C@H]2C(=O)Nc2ccccc2-n2cccc2)nc2ccccc21 | 8.05 | 2 nM | 9.52 | – |
| Cn1c(CCC(=O)N2CCC[C@H]2C(=O)Nc2ccccc2-c2ccccc2)nc2ccccc21 | 7.82 | 5 nM | 9.10 | Activity [4]: < 10 µM; Activity [5]: < 10 µM; half-life [6]: 18 min |
| Cn1c(SCC(=O)N2CCC[C@H]2C(=O)Nc2ccccc2-c2ccccc2)nc2ccccc21 | – | 4 nM | 9.70 | bioavailability [7]: 11%; concentration at 0.5 h [8]: 3500 nM; Activity [9]: < 10 µM; Activity (Rattus norvegicus): Dose-dependent effect; half-life [6]: 18 min; logP [10]: 3.4; clearance [11]: 3.7 mL/min/kg; concentration at 0.5 h [12]: 43 nM; Activity [13]: < 10 µM; Activity [14]: < 10 µM; concentration at 0.5 h [15]: 2370 nM |
| Cc1ccc2nc(SCC(=O)N3CCC[C@H]3C(=O)Nc3ccccc3-n3cccc3)n(C)c2c1 | 8.70 | 8 nM | 10.00 | – |
| O=C(Nc1ccccc1-c1ccccc1F)[C@@H]1CCCN1C(=O)CCc1nc2ccccc2[nH]1 | 7.57 | 4 nM | 8.52 | – |
| O=C(Nc1ccccc1-n1cccc1)[C@H]1CCCN1C(=O)CSc1nc2ccccc2[nH]1 | 5.60 | – | 6.88 | – |
| O=C(Nc1ccccc1)[C@@H]1CCCN1C(=O)CSc1nc2ccccc2[nH]1 | 5.85 | 4050 nM | 6.25 | – |
| O=C(Nc1ccccc1Oc1ccccc1)[C@@H]1CCCN1C(=O)CSc1nc2ccccc2[nH]1 | 7.16 | 16 nM | 8.52 | – |
| Cc1ccc2[nH]c(SCC(=O)N3CCC[C@H]3C(=O)Nc3ccccc3-n3cccc3)nc2c1 | – | 2 nM | – | – |
